Measurements from PubChem BioAssay AID1963865 (Molecular Pharmacology Branch, DTP, NCI, 2024).

Test system: KRAS PDC multicell spheroid viability
Test: Anticancer human tumor 825966-067-R-J1-PDC patient-derived colon carcinoma cell line growth inhibition [KRAS2]
Details: for viability, T/C: stronger effect = lower value
Procedure, shortened: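 Combination screen of spheroid viability in tumor-cell co-cultures with endothelial (HUVEC) and mesenchymal stem cell stroma. Each agent was tested in half-log dilutions, topping at clinical Cmax or at 10 microM without a known Cmax.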

[1] = curve of first compound, second compound 0.1 µM
[2] = curve of first compound, second compound 0.316 µM
[3] = curve of first compound, second compound 1 µM
[4] = curve of first compound, second compound 3.16 µM
[5] = curve of first compound, second compound 10 µM
[6] = second compound 0.1 µM, first compound 0.0316 µM
[7] = second compound 0.1 µM, first compound 0.1 µM
[8] = second compound 0.1 µM, first compound 0.316 µM
[9] = second compound 0.1 µM, first compound 1 µM
[10] = second compound 0.1 µM, first compound 3.16 µM
[11] = second compound 0.1 µM, first compound 10 µM
[12] = second compound 0.316 µM, first compound 0.0316 µM
[13] = second compound 0.316 µM, first compound 0.1 µM
[14] = second compound 0.316 µM, first compound 0.316 µM
[15] = second compound 0.316 µM, first compound 1 µM
[16] = second compound 0.316 µM, first compound 3.16 µM
[17] = second compound 0.316 µM, first compound 10 µM
[18] = second compound 1 µM, first compound 0.0316 µM
[19] = second compound 1 µM, first compound 0.1 µM
[20] = second compound 1 µM, first compound 0.316 µM
[21] = second compound 1 µM, first compound 1 µM
[22] = second compound 1 µM, first compound 3.16 µM
[23] = second compound 1 µM, first compound 10 µM
[24] = second compound 3.16 µM, first compound 0.0316 µM
[25] = second compound 3.16 µM, first compound 0.1 µM
[26] = second compound 3.16 µM, first compound 0.316 µM
[27] = second compound 3.16 µM, first compound 1 µM
[28] = second compound 3.16 µM, first compound 3.16 µM
[29] = second compound 3.16 µM, first compound 10 µM
[30] = second compound 10 µM, first compound 0.0316 µM
[31] = second compound 10 µM, first compound 0.1 µM
[32] = second compound 10 µM, first compound 0.316 µM
[33] = second compound 10 µM, first compound 1 µM
[34] = second compound 10 µM, first compound 3.16 µM
[35] = second compound 10 µM, first compound 10 µM
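Note: spheroids exposed to compounds for 7 days.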
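Throughout, for viability, T/C: 100% = DMSO vehicle control viability.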

| Compound | IC50 [1] [µM] | IC50 [2] [µM] | IC50 [3] [µM] | IC50 [4] [µM] | IC50 [5] [µM] | viability, T/C [6] [%] | viability, T/C [7] [%] | viability, T/C [8] [%] | viability, T/C [9] [%] | viability, T/C [10] [%] | viability, T/C [11] [%] | viability, T/C [12] [%] | viability, T/C [13] [%] | viability, T/C [14] [%] | viability, T/C [15] [%] | viability, T/C [16] [%] | viability, T/C [17] [%] | viability, T/C [18] [%] | viability, T/C [19] [%] | viability, T/C [20] [%] | other results |
| --- | --- | --- | --- | --- | --- | --- | --- | --- | --- | --- | --- | --- | --- | --- | --- | --- | --- | --- | --- | --- | --- |
| CCNC(=O)CC1N=C(c2ccc(Cl)cc2)c2cc(OC)ccc2-n2c(C)nnc21 (stereo not given) + CNCc1ccccc1-c1csc(C(C)Nc2nc(C)nc3cc(OC)c(OC)cc23)c1 | > 10 | > 10 | > 10 | < 0.0316 | < 0.0316 | 90.3 | 113 | 118 | 91.4 | 82.2 | 65 | 112 | 113 | 120 | 90.9 | 83.1 | 71.5 | 117 | 113 | 122 | viability, T/C [21]: 111%; viability, T/C [22]: 96.6%; viability, T/C [23]: 51.1%; viability, T/C [24]: 27.8%; viability, T/C [25]: 0.64%; viability, T/C [26]: 0.53%; viability, T/C [27]: 0.19%; viability, T/C [28]: 2.33%; viability, T/C [29]: 0.59%; viability, T/C [30]: 0.15%; viability, T/C [31]: 0.15%; viability, T/C [32]: 0.17%; viability, T/C [33]: 0.16%; viability, T/C [34]: 0.14%; viability, T/C [35]: 0.37% |
| COc1cc2nccc(Oc3ccc(NC(=O)C4(C(=O)Nc5ccc(F)cc5)CC4)cc3)c2cc1OC + CC1OCC2(CCN(c3cnc(Sc4ccnc(N)c4Cl)c(N)n3)CC2)C1N | 1.61 | 1.71 | 1.69 | 1.61 | < 0.0316 | 89.8 | 105 | 94.7 | 79.9 | 7.16 | 8.74 | 97 | 102 | 85.8 | 87.1 | 5.92 | 10 | 109 | 98.1 | 78.6 | viability, T/C [21]: 85.7%; viability, T/C [22]: 7.28%; viability, T/C [23]: 5.65%; viability, T/C [24]: 83.5%; viability, T/C [25]: 87%; viability, T/C [26]: 90.3%; viability, T/C [27]: 81.6%; viability, T/C [28]: 4.94%; viability, T/C [29]: 4.14%; viability, T/C [30]: 45.5%; viability, T/C [31]: 48.5%; viability, T/C [32]: 43.4%; viability, T/C [33]: 23.1%; viability, T/C [34]: 1.1%; viability, T/C [35]: 0.8% |
| CC1(C)CCC(CN2CCN(c3ccc(C(=O)NS(=O)(=O)c4ccc(NCC5CCOCC5)c([N+](=O)[O-])c4)c(Oc4cnc5[nH]ccc5c4)c3)CC2)=C(c2ccc(Cl)cc2)C1 | – | – | – | – | – | – | – | – | – | – | – | – | – | – | – | – | – | – | – | – | viability, T/C (compound 0.1 µM): 90.1% [middle of 5 runs]; viability, T/C (compound 0.316 µM): 102% [middle of 5 runs]; viability, T/C (compound 3.16 µM): 29.4% [middle of 5 runs]; viability, T/C (compound 10 µM): 7.19% [middle of 5 runs]; IC50 (curve of compound): 2.03 µM [middle of 5 runs] |
| COc1cc(Nc2ncc3c(n2)-c2ccc(Cl)cc2C(c2c(F)cccc2OC)=NC3)ccc1C(=O)O + C=CC(=O)N1CCN(c2nc(=O)n(-c3c(C)ccnc3C(C)C)c3nc(-c4c(O)cccc4F)c(F)cc23)C(C)C1 | > 10 | > 10 | > 10 | > 10 | > 10 | 144 | 117 | 141 | 140 | 138 | 133 | 116 | 107 | 135 | 140 | 154 | 134 | 88.9 | 107 | 96 | viability, T/C [21]: 127%; viability, T/C [22]: 123%; viability, T/C [23]: 118%; viability, T/C [24]: 104%; viability, T/C [25]: 93.5%; viability, T/C [26]: 142%; viability, T/C [27]: 118%; viability, T/C [28]: 144%; viability, T/C [29]: 103%; viability, T/C [30]: 83.3%; viability, T/C [31]: 66%; viability, T/C [32]: 97.7%; viability, T/C [33]: 79.5%; viability, T/C [34]: 116%; viability, T/C [35]: 90.5% |
